# Laboratory results from patent US10640545B2 (THE GOVERNORS OF THE UNIVERSITY OF ALBERTA, priority 2017, dated 2020).
# Where a SMILES comes first, the peptide text is derived from it. [ ]: non-standard residue; d: D form. The star is where a group is joined. Phe(4-Br) = N[C@@H](Cc1ccc(Br)cc1)C(=O)O; Palmitoyl = CCCCCCCCCCCCCCCC(=O)*; NMeL = CN[C@@H](CC(C)C)C(=O)O; Nle = CCCC[C@H](N)C(=O)O; Aib = CC(C)(N)C(=O)O
# Columns and labels:
# [1] = target: T1, recombinant human APJ-Ga16 receptor (Homo sapiens, UniProt P35414); assay: Ca2+ mobilization assay (FLIPR, Chem-5-APJ cells); assay type: cell-based; settings: among peptides 56-59
# T1 construct: host or cells: Chem-5-APJ cells
# T1 sequence (P35414 1-380): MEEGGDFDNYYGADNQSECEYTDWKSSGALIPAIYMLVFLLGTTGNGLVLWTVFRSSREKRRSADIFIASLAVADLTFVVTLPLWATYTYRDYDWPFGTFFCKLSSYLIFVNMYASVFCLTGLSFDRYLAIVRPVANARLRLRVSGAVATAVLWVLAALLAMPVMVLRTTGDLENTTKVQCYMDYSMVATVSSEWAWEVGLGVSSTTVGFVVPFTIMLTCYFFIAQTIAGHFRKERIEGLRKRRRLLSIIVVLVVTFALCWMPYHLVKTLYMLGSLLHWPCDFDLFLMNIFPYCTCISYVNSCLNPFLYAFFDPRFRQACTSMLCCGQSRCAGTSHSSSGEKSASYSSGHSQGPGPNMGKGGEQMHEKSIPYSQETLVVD
# Protocol: To study the extent to which the newly derived peptides trigger APJ-receptor activation, a fluorescence coupled calcium release assay including a recombinant human APJ-Ga16 receptor cell line was used.
# Chem-5-APJ cells (Millipore, USA) were seeded (30 000 cells/well) into Nunclon Delta Surface 96-well, clear-bottom microtitre plates (Thermo Scientific, Denmark) 24 hours prior to assay. Cells were loaded for 1 hour with FLIPR Calcium 6-QF fluorescent indicator dye (Molecular Devices, USA) in assay buffer [Hanks balanced salt solution (HBSS), 20 mM HEPES, 0.2% DMSO, 2.5 mM probenecid, pH 7.6], washed three times with assay buffer, then returned to the incubator for 10 min before assay on a fluorimetric imaging plate reader (FLIPR; Molecular Devices, Sunnyvale, Calif., USA). Maximum change in fluorescence over baseline was used to determine agonist response. Dose—response curve data were fitted to a four-parameter logistic equation using PRISM (Graph Pad, USA) from which pEC50 values were calculated. FIGS. 14A-G show the concentration response curves of apelin peptides.
# anesthetized mice = assay: Blood pressure assay in anesthetized mice; assay type: in vivo; settings: 1.4 μM/kg body weight injected
# How it was run: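 Mice were anaesthetized with 1.5% isoflurane/oxygen and kept at 36 °C. Peptide (1.4 μM/kg body weight) or saline was injected via the right jugular vein. Arterial pressure and heart rate were recorded continuously through a catheter in the aorta via the right carotid artery over 60 min and reported as SBP, DBP, MABP and HR.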
structure (smiles),measurement,setting,value
CCCCCCCCCCCCCCCC(=O)N[C@@H](CCCCN)C(=O)N[C@@H](Cc1ccccc1)C(=O)N[C@@H](CCCNC(=N)N)C(=O)N[C@@H](CCCNC(=N)N)C(=O)N[C@@H](CCC(N)=O)C(=O)N[C@@H](CCCNC(=N)N)C(=O)N1CCC[C@H]1C(=O)N[C@@H](CCCNC(=N)N)C(=O)N(C)[C@@H](CC(C)C)C(=O)N[C@@H](CO)C(=O)N[C@@H](Cc1c[nH]cn1)C(=O)N[C@@H](CCCCN)C(=O)NCC(=O)N1CCC[C@H]1C(=O)N[C@@H](CCCC)C(=O)NC(C)(C)C(=O)N[C@@H](Cc1ccc(Br)cc1)C(=O)O [Peptide 58] (Palmitoyl-KFRRQRPR[NMeL]SHKGP[Nle][Aib][Phe(4-Br)]-OH; C-terminus assumed),Ca2+ mobilization (in words),[1],lowest Ca^2+ mobilization
same,effect on heart rate (HR),anesthetized mice,heart rate increasing effect is restored
